Where a name gives a salt, the structure may show the parent alone. Read-outs that look alike come from different tables or passages of the source.
Legend:
[1] = test system: mechanically provoked coughing; assay: Antitussive activity: mechanically provoked coughing in anaesthetised cats; assay type: in vivo, cat; conditions: for ED50: Felis catus, iv, read-out: ED50 after parallel adjustment (50% reduction in the number of coughs)
Protocol: The antitussive activity of the compound 6-(p-chlorobenzyl)-3,5,6-trimethyl-2H-3, 4, 5, 6-tetrahydro-oxazine (1,3)-hydrochloride was tested as follows:
33 male and female cats with a body weight of 3.4 to 4.5 kg were anaesthetised with pentobarbital-Na (45 mg/kg as an initial bolus i.p. and then, spread throughout the experiment, several times as required, 7.5 or 15 mg/kg i.v.). Care was taken to keep the animals at about stage 1 to 2 (Guedel) of the tolerance stage.
Coughing fits were provoked mechanically by the insertion of a plastic catheter with a rounded tip, diameter about 1.5 mm, into the trachea as far as the bifurcation. At each time of irritation, a series of 3 stimuli were carried out at intervals of about 30 seconds. The coughing fits were always provoked 5, 25 and 45 minutes after administration of the test substance or vehicle.
The test substance was administered as a solution in 0.9% NaCl solution through a catheter in the V. femoralis. The injected volume was not more than 0.5 ml/kg. Before administration of the substance, the effect of the vehicle was tested on each animal.
By linear regression analysis and linear covariance analysis, the ED50 value (50% reduction in the number of coughs) was determined after parallel adjustment (Table 2).

opiate receptors = assay: Test of Binding to the Opiate Receptor: inhibition of 3H-diprenorphine binding; design: species or system rat; conditions: up to 100 μM; 0.5 nM 3H-diprenorphine

In the case of `CC1CN(C)COC1(C)Cc1ccc(Cl)cc1` (stereo not drawn) [Active substance, 6-(p-chloro-benzyl)-3,5,6-trimethyl-2H-3,4,5,6-tetrahydro-oxazine(1,3)-hydrochloride], the “Percentage inhibition of coughing, MW ± SE” value ([1]; 0.5 mg/kg i.v., after 5 minutes, n=5) is reported as 26.7 ± 8.5%, the “Percentage inhibition of coughing, MW ± SE” value ([1]; 0.5 mg/kg i.v., after 25 minutes, n=5) is reported as 16.7 ± 10.5% and the “Percentage inhibition of coughing, MW ± SE” value ([1]; 0.5 mg/kg i.v., after 45 minutes, n=5) is reported as 23.3 ± 10.0%. For the same molecule, the “Percentage inhibition of coughing, MW ± SE” value ([1]; 0.705 mg/kg i.v., after 5 minutes, n=5) was 23.3 ± 6.7%, the “Percentage inhibition of coughing, MW ± SE” value ([1]; 0.705 mg/kg i.v., after 25 minutes, n=5) was 13.3 ± 6.2% and the “Percentage inhibition of coughing, MW ± SE” value ([1]; 0.705 mg/kg i.v., after 45 minutes, n=5) was 13.3 ± 3.3%. For the same molecule, the “Percentage inhibition of coughing, MW ± SE” value ([1]; 1.0 mg/kg i.v., after 5 minutes, n=5) was 33.3 ± 18.3%, the “Percentage inhibition of coughing, MW ± SE” value ([1]; 1.0 mg/kg i.v., after 25 minutes, n=5) was 40.0 ± 16.3% and the “Percentage inhibition of coughing, MW ± SE” value ([1]; 1.0 mg/kg i.v., after 45 minutes, n=5) was 36.7 ± 3.3%. For the same molecule, the “Percentage inhibition of coughing, MW ± SE” value ([1]; 1.41 mg/kg i.v., after 5 minutes, n=5) was 63.3 ± 13.3%, the “Percentage inhibition of coughing, MW ± SE” value ([1]; 1.41 mg/kg i.v., after 25 minutes, n=5) was 53.3 ± 16.2% and the “Percentage inhibition of coughing, MW ± SE” value ([1]; 1.41 mg/kg i.v., after 45 minutes, n=5) was 50.0 ± 18.3%. The “Percentage inhibition of coughing, MW ± SE” value ([1]; 2.0 mg/kg i.v., after 5 minutes, n=5) was 33.3 ± 17.5%, the “Percentage inhibition of coughing, MW ± SE” value ([1]; 2.0 mg/kg i.v., after 25 minutes, n=5) was 53.3 ± 14.3% and the “Percentage inhibition of coughing, MW ± SE” value ([1]; 2.0 mg/kg i.v., after 45 minutes, n=5) was 36.7 ± 17.0%. For the same molecule, the “Percentage inhibition of coughing, MW ± SE” value ([1]; 2.83 mg/kg i.v., after 5 minutes, n=5) was 36.7 ± 14.3%, the “Percentage inhibition of coughing, MW ± SE” value ([1]; 2.83 mg/kg i.v., after 25 minutes, n=5) was 43.3 ± 13.5% and the “Percentage inhibition of coughing, MW ± SE” value ([1]; 2.83 mg/kg i.v., after 45 minutes, n=5) was 40.0 ± 11.3%. For the same molecule, the “Percentage inhibition of coughing, MW ± SE” value ([1]; 4.0 mg/kg i.v., after 5 minutes, n=5) was 60.0 ± 11.3%, the “Percentage inhibition of coughing, MW ± SE” value ([1]; 4.0 mg/kg i.v., after 25 minutes, n=5) was 63.3 ± 13.3% and the “Percentage inhibition of coughing, MW ± SE” value ([1]; 4.0 mg/kg i.v., after 45 minutes, n=5) was 46.7 ± 9.7%. For the same molecule, the “Percentage inhibition of coughing, MW ± SE” value ([1]; 5.64 mg/kg i.v., after 5 minutes, n=5) was 70.0 ± 20.0%, the “Percentage inhibition of coughing, MW ± SE” value ([1]; 5.64 mg/kg i.v., after 25 minutes, n=5) was 70.0 ± 20.0% and the “Percentage inhibition of coughing, MW ± SE” value ([1]; 5.64 mg/kg i.v., after 45 minutes, n=5) was 63.3 ± 17.0%. The “Percentage inhibition of coughing, MW ± SE” value ([1]; 8.0 mg/kg i.v., after 5 minutes, n=3) was 44.4 ± 29.4%, the “Percentage inhibition of coughing, MW ± SE” value ([1]; 8.0 mg/kg i.v., after 25 minutes, n=3) was 50.0 ± 25.5% and the “Percentage inhibition of coughing, MW ± SE” value ([1]; 8.0 mg/kg i.v., after 45 minutes, n=3) was 44.4 ± 20.0%. For the same molecule, the ED50 ([1]; 5 min, 5 minutes after administration) was 2.6 mg/kg, the ED50 ([1]; 25 min, 25 minutes after administration) was 2.4 mg/kg and the ED50 ([1]; 0.75 h, 45 minutes after administration) was 3.2 mg/kg. The “effect on the number of mechanically provoked coughs” value ([1]; intravenously, 0.5 to 8 mg/kg) was “reducing the number of mechanically provoked coughs”, the “cough-suppressing effect, doses and testing times at which observed” value ([1]; intravenously, 0.5 to 8 mg/kg, 5, 25 and 45 minutes) was “observed from the lowest administered dose upwards, at every testing time” and the “inhibition of 3H-diprenorphine binding” value (opiate receptors) was “no inhibition”.

Reference: patent US5114935A, “Substituted 6-benzyl-2H-3,4,5,6-tetrahydro-(1,3)-oxazines” (Dr. Karl Thomae GmbH, priority 1989, dated 1992)
